Positions of bridges follow the written chain, without caps; N, C: chain ends. Residues, ends and D or L forms follow the SMILES beside them.
Legend:
mouse MRGPRB2 = target: T1, mouse MRGPRB2 (Mus musculus, UniProt Q3KNA1); set-up: method as in PMID 38184723; settings: cited from earlier work
T1 construct: expressed in transfected cells; host or cells: 1321N1 astrocytoma cells; plasmid pLVX-IRES-MRGPRB2-mCherry (Addgene #213961)
T1 sequence (Q3KNA1 1-338): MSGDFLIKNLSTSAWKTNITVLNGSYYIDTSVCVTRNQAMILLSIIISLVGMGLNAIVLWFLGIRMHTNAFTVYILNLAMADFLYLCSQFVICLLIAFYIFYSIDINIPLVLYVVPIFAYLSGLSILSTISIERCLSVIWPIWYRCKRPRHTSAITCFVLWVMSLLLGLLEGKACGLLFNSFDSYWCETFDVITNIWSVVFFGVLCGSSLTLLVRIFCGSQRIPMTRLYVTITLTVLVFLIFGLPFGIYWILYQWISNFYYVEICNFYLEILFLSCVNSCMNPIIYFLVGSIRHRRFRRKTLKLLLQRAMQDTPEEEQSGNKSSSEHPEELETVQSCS

MRGPRX2 [1] = target: T2, MRGPRX2 (Homo sapiens, UniProt Q96LB1); test: β-arrestin recruitment assay (antagonist mode), β-arrestin-CHO cells recombinantly expressing MRGPRX2; type: cell-based; set-up: expressed in transfected cells
T2 sequence (Q96LB1 1-330): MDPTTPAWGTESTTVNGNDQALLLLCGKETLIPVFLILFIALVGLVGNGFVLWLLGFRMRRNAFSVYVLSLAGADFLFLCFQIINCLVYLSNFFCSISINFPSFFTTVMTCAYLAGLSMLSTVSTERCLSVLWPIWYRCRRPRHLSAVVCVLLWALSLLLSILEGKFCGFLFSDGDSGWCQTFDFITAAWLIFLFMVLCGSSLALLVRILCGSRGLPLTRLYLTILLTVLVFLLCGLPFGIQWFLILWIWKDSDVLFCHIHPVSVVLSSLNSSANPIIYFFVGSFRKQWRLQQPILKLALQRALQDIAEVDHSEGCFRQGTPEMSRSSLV

MRGPRX2 [2] = target: T2, MRGPRX2; test: Ca2+ mobilization assay, LN229 cells overexpressing MRGPRX2; type: cell-based; set-up: expressed in transfected cells; host or cells: LN229 human glioblastoma cells; plasmid pLXSN-MRGPRX2 (Addgene #213960)
Procedure: Glioblastoma LN229-MRGPRX2 stably expressing MRGPRX2 (produced by retroviral transfection) were seeded into black sterile 96-well microplates at a density of 5 × 10^4 cells/well in 200 µL of DMEM/F12-Nut Mix medium, supplemented with 10% FCS, 100 U/mL of penicillin 100 µg/mL of streptomycin, and 200 µg/mL of G418 and incubated for 18–22 h.
The next day Fluo-4 AM Solution (1 mM) (Thermo Fisher Scientific) was prepared and used to prepare cell loading dye solution consisting of 4970 µL of Hank’s Buffered Saline Solution (HBSS) buffer, 15 µL of 20% Pluronic-F and 15 µL of 1 mM Fluo-4 AM. Next, the cell medium was removed and exchanged for 40 µL of dye solution per well (final concentration of Fluo-4 AM: 3 µM). The cell plate was incubated for 60 min in the dark at room temperature, then the dye solution was removed and replaced by 189 µL HBSS. Subsequently, 1 µL of antagonist diluted in DMSO was added and incubated for 30 min at room temperature and in the dark (final DMSO concentration 0.5%, v/v). CST-14 or another agonist prepared in HBSS as well as carbachol (final concentration 100 µM) were pipetted (10 µL) using a FlexStation® 3 Multi-Mode Microplate Reader. For the determination of baseline fluorescence, HBSS buffer containing solvent of the investigated compound was used. Fluorescence was measured for 120 intervals of 1 s (number of flashes: 10) at a wavelength of 525 nm (excitation 485 nm) using the SoftMax® Pro5.1 Microplate Data Acquisition & Analysis Software. Three independent experiments were performed in duplicates. Measurements are provided in relative fluorescence units and normalized to the maximal effect of CST-14.

MRGPRX2 [3] = target: T2, MRGPRX2; test: TRUPATH Gαq dissociation assay, LN229 cells expressing MRGPRX2; type: cell-based; set-up: expressed in transfected cells; host or cells: LN229 human glioblastoma cells; plasmid pLXSN-MRGPRX2 (Addgene #213960); settings: read-out: EC50 of agonist, Gαq dissociation
Procedure: (§1) Fig. 3 Biological characterization of PSB-172656. a Selectivity of PSB-172656 (100 nM) for MRGPRX2 over MRGPRX1, MRGPRX3, and MRGPRX4 measured in β-arrestin assays utilizing β-arrestin-CHO cells with recombinant expression of the respective receptor. MRGPRX1 was activated by BAM-22P (8.5 µM),[19] MRGPRX2 was activated by CST-14 (1 µM), MRGPRX3 was activated by PSB-20294 (10 µM), MRGPRX4 was activated by PSB-18061 (2.6 µM).[44] Data represent mean values ± SEM of 3-4 biological replicates, performed in duplicates. […] Data are means ± SEM of 3 biological replicates, in duplicates. Statistical significance was determined by one-way ANOVA (Tukey’s multiple comparison) test (ns P > 0.05). […] Data are means ± SEM of 3 biological replicates, performed in duplicates. e Shift assay to determine inhibition type of PSB-172656 versus CST-14. […] Extrapolated data were not used for analysis but only shown for a comprehensive view. f Schild plot for the effect of PSB-172656 on the concentration-response curves for CST-14. […]
(§2) To further investigate PSB-172656 signaling, direct activation of the relevant G protein subunits, Gαq and Gαi1,[32] was studied. This was assessed using G protein dissociation assays and LN229 cells stably overexpressing MRGPRX2 while transiently expressing the investigated G protein (Fig. 3c, d).[47]

MRGPRX2 [4] = target: T2, MRGPRX2; test: TRUPATH Gαi1 dissociation assay, LN229 cells expressing MRGPRX2; type: cell-based; set-up: expressed in transfected cells; host or cells: LN229 human glioblastoma cells; plasmid pLXSN-MRGPRX2 (Addgene #213960); settings: read-out: EC50 of agonist, Gαi1 dissociation
Procedure: as §1, §2

C[C@@H](O)[C@@H]1NC(=O)[C@H](CCCCN)NC(=O)[C@H](Cc2c[nH]c3ccccc23)NC(=O)[C@H](Cc2ccccc2)NC(=O)[C@H](Cc2ccccc2)NC(=O)[C@H](CC(N)=O)NC(=O)[C@H](CCCCN)NC(=O)[C@@H](NC(=O)[C@@H]2CCCN2)CSSC[C@@H](C(=O)N[C@@H](CCCCN)C(=O)O)NC(=O)[C@H](CO)NC(=O)[C@H](CO)NC(=O)[C@H](Cc2ccccc2)NC1=O [CST-14, reference compound] (H-PCKNFFWKTFSSCK-OH; disulfide 2-13; N-terminus and C-terminus assumed)
EC80 of agonist at MRGPRB2, Ca2+ assay (mouse MRGPRB2): 2000 nM | EC80 of agonist, β-arrestin assay (MRGPRX2 [1]): 1000 nM | EC50 (MRGPRX2 [1]; agonist concentration-response curve, read-out: EC50 of agonist, β-arrestin assay): 483 nM | EC50 (MRGPRX2 [1]; without antagonist, read-out: EC50 of CST-14, shift assay): 283 ± 45 nM | EC80 of agonist, Ca2+ assay (MRGPRX2 [2]): 800 nM | EC50 (MRGPRX2 [2]; agonist concentration-response curve): 452 ± 49 nM | EC50 (MRGPRX2 [3]): 499 ± 207 nM | EC50 (MRGPRX2 [4]): 113 ± 16 nM
